Data published in patent publication US9580409B2, “Modulators of opioid receptors and methods of use thereof” (priority 2011, dated 2017).

How the values were obtained:
mu-opioid receptor [1] = biological target: T1, mu-opioid receptor (Homo sapiens, UniProt P35372); assay: biochemical; conditions: read-out: GTP Activity
Target sequence in this assay (P35372 whole entry, species assumed): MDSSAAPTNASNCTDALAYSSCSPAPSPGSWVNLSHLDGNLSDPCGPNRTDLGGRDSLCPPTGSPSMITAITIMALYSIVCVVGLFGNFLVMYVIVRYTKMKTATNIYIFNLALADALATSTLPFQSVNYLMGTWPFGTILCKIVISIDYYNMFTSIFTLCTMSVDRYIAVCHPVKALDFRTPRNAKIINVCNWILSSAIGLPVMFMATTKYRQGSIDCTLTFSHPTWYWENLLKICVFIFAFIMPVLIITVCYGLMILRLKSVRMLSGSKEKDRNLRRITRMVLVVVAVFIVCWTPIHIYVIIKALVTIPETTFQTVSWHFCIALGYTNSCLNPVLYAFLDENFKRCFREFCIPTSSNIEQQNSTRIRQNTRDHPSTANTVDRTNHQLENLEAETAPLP

mu-opioid receptor [2] = biological target: T1, mu-opioid receptor; assay: cell-based; conditions: read-out: BArr Activity
Target sequence in this assay (P35372 whole entry, species assumed): as above
Target sequence in this assay (P32121 whole entry partner, species assumed): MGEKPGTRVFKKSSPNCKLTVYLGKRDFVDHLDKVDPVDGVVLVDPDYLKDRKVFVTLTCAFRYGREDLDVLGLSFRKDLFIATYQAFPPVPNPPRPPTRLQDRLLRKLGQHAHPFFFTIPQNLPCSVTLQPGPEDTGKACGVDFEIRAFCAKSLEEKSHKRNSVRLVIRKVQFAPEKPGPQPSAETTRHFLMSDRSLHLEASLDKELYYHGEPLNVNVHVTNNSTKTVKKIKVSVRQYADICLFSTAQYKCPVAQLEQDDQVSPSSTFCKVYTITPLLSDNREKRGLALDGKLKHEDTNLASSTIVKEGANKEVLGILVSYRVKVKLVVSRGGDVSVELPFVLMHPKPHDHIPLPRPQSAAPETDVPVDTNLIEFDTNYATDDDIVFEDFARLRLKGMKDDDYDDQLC

[3] = […], class symbol combines EC50 and efficacy

| SMILES | EC50 (mu-opioid receptor [1]; class symbols) | EC50 (mu-opioid receptor [2]; class symbols) | EC50 (mu-opioid receptor [1]; [3]) | EC50 (mu-opioid receptor [2]; [3]) |
| --- | --- | --- | --- | --- |
| COc1cc(OC)cc(N2C(NC(C)C)=C(c3nc4ccccc4[nH]3)C(=O)C2(C)C)c1 [compound 90] | 100 to 1000 nM | < 10000 nM | – | – |
| COc1cc(OC)cc(N2C(N)=C(c3nc4ccccc4[nH]3)C(=O)[C@@H]2C(C)C)c1 [compound 98] | < 100 nM | < 10000 nM | – | – |
| CNC1=C(c2nc3ccccc3[nH]2)C(=O)[C@](C)(CNC(C)=O)N1c1cc(OC)cc(OC)c1 [compound 307] | – | – | 100 to 1000 nM | < 10000 nM |
| CNC1=C(c2nc3ccccc3[nH]2)C(=O)[C@]2(CCOC2)N1c1cc(OC)cc(OC)c1 [compound 213] | – | – | < 100 nM | < 10000 nM |
| CNC1=C(c2nc3ccccc3[nH]2)C(=O)C2(CCCOC2)N1c1cc(OC)cc(OC)c1 (stereo not shown) [compound 272] | – | – | < 100 nM | < 10000 nM |
| CNC1=C(c2nc3ccccc3[nH]2)C(=O)[C@H](C)N1c1cc(OC)cc(OC)c1 [compound 137] | 100 to 1000 nM | < 10000 nM | – | – |
| CC[C@H]1C(=O)C(c2nc3ccccc3[nH]2)=C(NC)N1c1cc(OC)cc(OC)c1 [compound 185] | < 100 nM | < 10000 nM | – | – |
| CCC(=O)NCCC1(C)C(=O)C(c2nc3ccccc3[nH]2)=C(NC)N1c1cc(OC)cc(OC)c1 (stereo not shown) [compound 285] | – | – | < 100 nM | < 10000 nM |
| CNC1=C(c2nc3ccccc3[nH]2)C(=O)C(CCO)N1c1cc(OC)cc(OC)c1 (stereo not shown) [compound 215] | – | – | < 100 nM | < 10000 nM |
| CCNC1=C(c2nc3ccccc3[nH]2)C(=O)CN1c1cc(OC)cc(OC)c1 [compound 88] | 100 to 1000 nM | < 10000 nM | – | – |
| CNC1=C(c2nc3ccccc3[nH]2)C(=O)C(CCNC(C)=O)N1c1cc(OC)cc(OC)c1 (stereo not shown) [compound 254] | – | – | < 100 nM | < 10000 nM |
| CNC1=C(c2nc3ccccc3[nH]2)C(=O)C(CNC(C)=O)N1c1cc(OC)cc(OC)c1 (stereo not shown) [compound 287] | – | – | < 100 nM | < 10000 nM |
| CNC1=C(c2nc3ccccc3[nH]2)C(=O)C(CCOC)N1c1cc(OC)cc(OC)c1 (stereo not shown) [compound 218] | – | – | < 100 nM | < 10000 nM |
| CNC1=C(c2nc3ccccc3[nH]2)C(=O)CN1c1cc(OC)cc(OC)c1 [compound 58] | 100 to 1000 nM | < 10000 nM | – | – |
| CNC1=C(c2nc3ccccc3[nH]2)C(=O)[C@]2(CCCOC2)N1c1cc(OC)cc(OC)c1 [compound 305] | – | – | < 100 nM | < 10000 nM |
| CNC1=C(c2nc3ccccc3[nH]2)C(=O)C(CCNC(=O)c2ccccc2)N1c1cc(OC)cc(OC)c1 (stereo not shown) [compound 255] | – | – | < 100 nM | < 10000 nM |
| CNC1=C(c2nc3ccccc3[nH]2)C(=O)C(C)(C)N1c1cc(OC)cc(OC)c1 [compound 79] | < 100 nM | < 10000 nM | – | – |
| COc1cc(OC)cc(N2C(N)=C(c3nc4ccccc4[nH]3)C(=O)C23CCOC3)c1 (stereo not shown) [compound 181] | 100 to 1000 nM | < 10000 nM | – | – |

| SMILES | EC50 (mu-opioid receptor [1]; class symbols) | EC50 (mu-opioid receptor [2]; class symbols) | EC50 (mu-opioid receptor [1]; [3]) | EC50 (mu-opioid receptor [2]; [3]) |
| --- | --- | --- | --- | --- |
| CCC1C(=O)C(c2nc3ccccc3[nH]2)=C(N)N1c1cc(OC)cc(OC)c1 (stereo not shown) [compound 54] | 100 to 1000 nM | < 10000 nM | – | – |
| COc1cc(OC)cc(N2C(N)=C(c3nc4ccccc4[nH]3)C(=O)[C@H]2C)c1 [compound 82] | < 100 nM | < 10000 nM | – | – |
| CNC1=C(c2nc3ccccc3[nH]2)C(=O)[C@](C)(CCNC(C)=O)N1c1cc(OC)cc(OC)c1 [compound 303] | – | – | < 100 nM | < 10000 nM |
| CNC1=C(c2nc3ccccc3[nH]2)C(=O)[C@@](C)(CNC(C)=O)N1c1cc(OC)cc(OC)c1 [compound 308] | – | – | < 100 nM | < 10000 nM |
| CNC1=C(c2nc3ccccc3[nH]2)C(=O)[C@@H](C)N1c1cc(OC)cc(OC)c1 [compound 136] | < 100 nM | < 10000 nM | – | – |
| CNC1=C(c2nc3ccccc3[nH]2)C(=O)C2(CCC2)N1c1cc(OC)cc(OC)c1 [compound 109] | < 100 nM | < 10000 nM | – | – |
| COc1cc(OC)cc(N2C(N)=C(c3nc4ccccc4[nH]3)C(=O)C2C)c1 (stereo not shown) [compound 1] | 100 to 1000 nM | < 10000 nM | – | – |
| CCC1C(=O)C(c2nc3ccccc3[nH]2)=C(NC)N1c1cc(OC)cc(OC)c1 (stereo not shown) [compound 153] | < 100 nM | < 10000 nM | – | – |
| CNC1=C(c2nc3ccccc3[nH]2)C(=O)C(C)(CCO)N1c1cc(OC)cc(OC)c1 (stereo not shown) [compound 217] | – | – | < 100 nM | – |
| CNC1=C(c2nc3ccccc3[nH]2)C(=O)C2(CCOCC2)N1c1cc(OC)cc(OC)c1 [compound 226] | – | – | 100 to 1000 nM | – |
| COc1cc(OC)cc(N2C(N)=C(c3nc4ccccc4[nH]3)C(=O)C2CCN2CCCC2)c1 (stereo not shown) [compound 237] | – | – | 1000 to 10000 nM | – |
| CNC1=C(c2nc3ccccc3[nH]2)C(=O)C(CNC(=O)COC)N1c1cc(OC)cc(OC)c1 (stereo not shown) [compound 289] | – | – | < 100 nM | – |
| COc1cc(OC)cc(N2C(N)=C(c3nc4ccccc4[nH]3)C(=O)C23CN(C(C)=O)C3)c1 [compound 248] | – | – | 100 to 1000 nM | – |
| COc1cc(OC)cc(-n2c(N)c(-c3nc4ccccc4[nH]3)c(=N)n2C)c1 [compound 110] | 100 to 1000 nM | – | – | – |
| COc1cc(OC)cc(N2CC(=O)C(c3nc4cc(C)ccc4[nH]3)=C2N)c1 [compound 6] | 1000 to 10000 nM | – | – | – |
| CNC1=C(c2nc3ccccc3[nH]2)C(=O)[C@@](C)(CCOC)N1c1cc(OC)cc(OC)c1 [compound 300] | – | – | < 100 nM | – |
| COc1cc(OC)cc(N2C(N)=C(c3nc4ccccc4[nH]3)C(=O)C23CN(C)C3)c1 [compound 190] | 1000 to 10000 nM | – | – | – |
